The assay addresses T1, Proteinase-activated receptor 1 (Homo sapiens, UniProt P25116).
T1 sequence (P25116 whole entry): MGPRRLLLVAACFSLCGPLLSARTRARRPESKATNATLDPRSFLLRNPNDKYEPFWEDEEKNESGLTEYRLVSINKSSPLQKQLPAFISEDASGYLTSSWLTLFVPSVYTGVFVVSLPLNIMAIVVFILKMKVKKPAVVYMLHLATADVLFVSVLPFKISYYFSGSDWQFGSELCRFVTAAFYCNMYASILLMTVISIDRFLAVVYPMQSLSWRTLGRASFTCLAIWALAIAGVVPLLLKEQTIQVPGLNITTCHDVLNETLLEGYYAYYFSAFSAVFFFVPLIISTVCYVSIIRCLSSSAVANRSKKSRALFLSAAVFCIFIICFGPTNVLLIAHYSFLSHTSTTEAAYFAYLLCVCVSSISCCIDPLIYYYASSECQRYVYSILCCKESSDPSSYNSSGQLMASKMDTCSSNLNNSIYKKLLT
Nature of the assay: Displacement of [125I]thrombin from thrombin receptor in human platelet membrane. The assay is classed as cell membranes.

The term pIC50 denotes the IC50 on a negative log10 scale, so that one unit is a factor of ten. A low value points to a high IC50.

Structures are written as SMILES. pIC50: −log10 of the molar value.

On to `O=S(=O)(O)OC(=C\c1cc(O)c(O)c(Br)c1)/C(=C\c1ccc(O)c(Br)c1)OS(=O)(=O)O` [APLYSIILLIN A], for which the pIC50 was 4.70.

(Values after ChEMBL document CHEMBL1159264, “Aplysillin A, a thrombin receptor antagonist from the marine sponge Aplysina fistularis fulva” (J Nat Prod, 1995).)
